Reference: patent US12630600B2 (MEDIMMUNE LIMITED, priority 2022, dated 2026)
Starred links: 1 amine or outer side, 2 acyl side, 3 side chain; linkers in the order of their positions; H or OH if unused. Non-standard residues stand in square brackets, D forms with d. Residues, ends and D or L forms follow the SMILES beside them. Groups on a side chain read outwards from the residue. *: point of attachment. C20 diacid = O=C(O)CCCCCCCCCCCCCCCCCCC(=O)*; C18 diacid = O=C(O)CCCCCCCCCCCCCCCCC(=O)*; γGlu = O=C(O)[C@H](CCC(=O)[*:2])N[*:1]; αMeF = C[C@](N)(Cc1ccccc1)C(=O)O; PEG2 = NCCOCCOCCC(=O)O; AEEA = NCCOCCOCC(=O)O; Aib = CC(C)(N)C(=O)O

target: T1, human GLP-1 receptor (hGLP-1R) (Homo sapiens, UniProt P43220); assay: cAMP production (HTRF) in CHO cells expressing human GLP-1 receptor; assay type: cell-based; settings: Table 6; % GLP-1R activity relative to GLP-1 / % GlucR activity relative to glucagon
T1 construct: expressed in transfected cells; host or cells: CHO
T1 sequence (P43220 24-463): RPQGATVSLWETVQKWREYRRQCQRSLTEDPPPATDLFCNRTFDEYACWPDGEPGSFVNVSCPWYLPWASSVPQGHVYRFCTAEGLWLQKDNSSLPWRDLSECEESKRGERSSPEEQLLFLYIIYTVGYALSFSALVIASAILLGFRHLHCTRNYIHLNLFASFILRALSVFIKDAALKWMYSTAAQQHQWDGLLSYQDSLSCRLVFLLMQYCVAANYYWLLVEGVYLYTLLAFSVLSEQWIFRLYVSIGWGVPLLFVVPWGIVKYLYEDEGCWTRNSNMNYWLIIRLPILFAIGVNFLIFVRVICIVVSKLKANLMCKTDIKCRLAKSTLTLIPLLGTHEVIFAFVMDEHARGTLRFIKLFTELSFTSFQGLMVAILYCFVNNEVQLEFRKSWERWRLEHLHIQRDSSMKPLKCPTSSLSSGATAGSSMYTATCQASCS

Compound | % Relative Potency Ratio
CC(C)C[C@H](NC(=O)[C@H](CCC(=O)O)NC(=O)[C@H](CC(C)C)NC(=O)[C@](C)(Cc1ccccc1)NC(=O)[C@H](CCCCN)NC(=O)[C@H](CO)NC(=O)[C@@H](NC(=O)[C@H](CC(=O)O)NC(=O)[C@H](CO)NC(=O)[C@@H](NC(=O)[C@H](Cc1ccccc1)NC(=O)[C@@H](NC(=O)CNC(=O)[C@H](CCC(N)=O)NC(=O)C(C)(C)NC(=O)[C@@H](N)Cc1c[nH]cn1)[C@@H](C)O)[C@@H](C)O)C(C)C)C(=O)N[C@@H](CCCCNC(=O)COCCOCCNC(=O)COCCOCCNC(=O)CC[C@H](NC(=O)CCCCCCCCCCCCCCCCC(=O)O)C(=O)O)C(=O)N[C@@H](CCCNC(=N)N)C(=O)N[C@@H](C)C(=O)N[C@@H](CCC(N)=O)C(=O)N[C@@H](CC(=O)O)C(=O)N[C@@H](Cc1ccccc1)C(=O)N[C@H](C(=O)N[C@@H](CCCNC(=N)N)C(=O)N[C@@H](Cc1c[nH]c2ccccc12)C(=O)N[C@@H](CC(C)C)C(=O)N[C@@H](CC(C)C)C(=O)NC(C)(C)C(=O)N[C@H](C(=O)N[C@@H](CCC(=O)O)C(=O)O)[C@@H](C)O)C(C)C [Peptide 169] (H-H[Aib]QGTFTSDVSK[αMeF]LELK([AEEA-AEEA-γGlu-C18 diacid])RAQDFVRWLL[Aib]TE-OH; N-terminus assumed) | 13.2

same assay, conditions: Table 8; % GLP-1R activity relative to GLP-1 / % GlucR activity relative to glucagon

Compound | % Relative Potency Ratio
CC[C@H](C)[C@H](NC(=O)[C@H](Cc1c[nH]c2ccccc12)NC(=O)[C@H](CCCCNC(=O)CC[C@H](NC(=O)CCCCCCCCCCCCCCCCC(=O)O)C(=O)O)NC(=O)[C@@H](NC(=O)[C@H](Cc1ccccc1)NC(=O)[C@H](CC(=O)O)NC(=O)[C@H](CCC(N)=O)NC(=O)[C@H](C)NC(=O)[C@H](C)NC(=O)[C@H](CCC(N)=O)NC(=O)[C@H](CO)NC(=O)[C@H](CC(=O)O)NC(=O)[C@H](CC(C)C)NC(=O)[C@](C)(Cc1ccccc1)NC(=O)[C@H](CCCCN)NC(=O)[C@H](CO)NC(=O)[C@@H](NC(=O)[C@H](CC(=O)O)NC(=O)[C@H](CO)NC(=O)[C@@H](NC(=O)[C@](C)(Cc1ccccc1)NC(=O)[C@H](CO)NC(=O)CNC(=O)[C@H](Cc1c[nH]cn1)NC(=O)C(C)(C)NC(=O)[C@@H](N)Cc1c[nH]cn1)[C@@H](C)O)C(C)C)C(C)C)C(=O)N[C@@H](C)C(=O)N[C@@H](CC(N)=O)C(=O)N[C@H](C(N)=O)[C@@H](C)O [Peptide 351] (H-H[Aib]HGS[αMeF]TSDVSK[αMeF]LDSQAAQDFVK([γGlu-C18 diacid])WIANT-NH2) | 0.7
CC[C@H](C)[C@H](NC(=O)[C@H](Cc1c[nH]c2ccccc12)NC(=O)[C@H](CCCCNC(=O)CCOCCOCCNC(=O)CCOCCOCCNC(=O)CC[C@H](NC(=O)CC[C@H](NC(=O)CCCCCCCCCCCCCCCCC(=O)O)C(=O)O)C(=O)O)NC(=O)[C@@H](NC(=O)[C@H](Cc1ccccc1)NC(=O)[C@H](CC(=O)O)NC(=O)[C@H](CCC(N)=O)NC(=O)[C@H](C)NC(=O)[C@H](C)NC(=O)[C@H](CCC(N)=O)NC(=O)[C@H](CO)NC(=O)[C@H](CC(=O)O)NC(=O)[C@H](CC(C)C)NC(=O)[C@](C)(Cc1ccccc1)NC(=O)[C@H](CCCCN)NC(=O)[C@H](CO)NC(=O)[C@@H](NC(=O)[C@H](CC(=O)O)NC(=O)[C@H](CO)NC(=O)[C@@H](NC(=O)[C@](C)(Cc1ccccc1)NC(=O)[C@H](CO)NC(=O)CNC(=O)[C@H](Cc1c[nH]cn1)NC(=O)C(C)(C)NC(=O)[C@@H](N)Cc1c[nH]cn1)[C@@H](C)O)C(C)C)C(C)C)C(=O)N[C@@H](C)C(=O)N[C@@H](CC(N)=O)C(=O)N[C@H](C(N)=O)[C@@H](C)O [Peptide 352] (H-H[Aib]HGS[αMeF]TSDVSK[αMeF]LDSQAAQDFVK([PEG2-PEG2-γGlu-γGlu-C18 diacid])WIANT-NH2) | 1.4
CC[C@H](C)[C@H](NC(=O)C(C)(C)NC(=O)[C@H](CCCCNC(=O)COCCOCCNC(=O)COCCOCCNC(=O)CC[C@H](NC(=O)CCCCCCCCCCCCCCCCC(=O)O)C(=O)O)NC(=O)[C@@H](NC(=O)[C@](C)(Cc1ccccc1)NC(=O)[C@H](CC(=O)O)NC(=O)[C@H](CCC(N)=O)NC(=O)[C@H](C)NC(=O)[C@H](C)NC(=O)[C@H](CCC(N)=O)NC(=O)[C@H](CO)NC(=O)[C@H](CC(=O)O)NC(=O)[C@H](CC(C)C)NC(=O)[C@](C)(Cc1ccccc1)NC(=O)[C@H](CCCCN)NC(=O)[C@H](CO)NC(=O)[C@@H](NC(=O)[C@H](CC(=O)O)NC(=O)[C@H](CO)NC(=O)[C@@H](NC(=O)[C@](C)(Cc1ccccc1)NC(=O)[C@H](CO)NC(=O)CNC(=O)[C@H](Cc1c[nH]cn1)NC(=O)C(C)(C)NC(=O)[C@@H](N)Cc1c[nH]cn1)[C@@H](C)O)C(C)C)C(C)C)C(=O)N[C@@H](C)C(=O)N[C@@H](CC(N)=O)C(=O)N[C@H](C(N)=O)[C@@H](C)O [Peptide 383] (H-H[Aib]HGS[αMeF]TSDVSK[αMeF]LDSQAAQD[αMeF]VK([AEEA-AEEA-γGlu-C18 diacid])[Aib]IANT-NH2; N-terminus assumed) | 2.3
CC[C@H](C)[C@H](NC(=O)[C@H](Cc1c[nH]c2ccccc12)NC(=O)[C@H](CCCCNC(=O)COCCOCCNC(=O)COCCOCCNC(=O)CC[C@H](NC(=O)CCCCCCCCCCCCCCCCCCC(=O)O)C(=O)O)NC(=O)[C@@H](NC(=O)[C@H](Cc1ccccc1)NC(=O)[C@H](CC(=O)O)NC(=O)[C@H](CCC(N)=O)NC(=O)[C@H](C)NC(=O)C(C)(C)NC(=O)[C@H](CCCNC(=N)N)NC(=O)[C@H](CO)NC(=O)[C@H](CC(=O)O)NC(=O)[C@H](CC(C)C)NC(=O)[C@](C)(Cc1ccccc1)NC(=O)[C@H](CCCCN)NC(=O)[C@H](CO)NC(=O)[C@@H](NC(=O)[C@H](CC(=O)O)NC(=O)[C@H](CO)NC(=O)[C@@H](NC(=O)[C@](C)(Cc1ccccc1)NC(=O)[C@H](CO)NC(=O)CNC(=O)[C@H](Cc1c[nH]cn1)NC(=O)C(C)(C)NC(=O)[C@@H](N)Cc1c[nH]cn1)[C@@H](C)O)C(C)C)C(C)C)C(=O)N[C@@H](C)C(=O)N[C@@H](CC(N)=O)C(=O)N[C@H](C(N)=O)[C@@H](C)O [Peptide 368, H(Aib)HGS(αMePhe)TSDVSK(αMePhe)LDSR(Aib)AQDFVK(O2OC-O2OC-γE-C20diacid)24WIANT-amide] (H-H[Aib]HGS[αMeF]TSDVSK[αMeF]LDSR[Aib]AQDFVK([AEEA-AEEA-γGlu-C20 diacid])WIANT-NH2; N-terminus assumed) | 3.1
CC[C@H](C)[C@H](NC(=O)[C@H](Cc1c[nH]c2ccccc12)NC(=O)[C@H](CCCCNC(=O)COCCOCCNC(=O)COCCOCCNC(=O)CC[C@H](NC(=O)CC[C@H](NC(=O)CCCCCCCCCCCCCCCCC(=O)O)C(=O)O)C(=O)O)NC(=O)[C@@H](NC(=O)[C@H](Cc1ccccc1)NC(=O)[C@H](CC(=O)O)NC(=O)[C@H](CCC(N)=O)NC(=O)[C@H](C)NC(=O)[C@H](C)NC(=O)[C@H](CCCNC(=N)N)NC(=O)[C@H](CO)NC(=O)[C@H](CC(=O)O)NC(=O)[C@H](CC(C)C)NC(=O)[C@](C)(Cc1ccccc1)NC(=O)[C@H](CCCCN)NC(=O)[C@H](CO)NC(=O)[C@@H](NC(=O)[C@H](CC(=O)O)NC(=O)[C@H](CO)NC(=O)[C@@H](NC(=O)[C@](C)(Cc1ccccc1)NC(=O)[C@H](CO)NC(=O)CNC(=O)[C@H](Cc1c[nH]cn1)NC(=O)C(C)(C)NC(=O)[C@@H](N)Cc1c[nH]cn1)[C@@H](C)O)C(C)C)C(C)C)C(=O)N[C@@H](C)C(=O)N[C@@H](CC(N)=O)C(=O)N[C@H](C(=O)NCC(=O)NCC(N)=O)[C@@H](C)O [Peptide 364] (H-H[Aib]HGS[αMeF]TSDVSK[αMeF]LDSRAAQDFVK([AEEA-AEEA-γGlu-γGlu-C18 diacid])WIANTGG-NH2; N-terminus assumed) | 2.6
